Tested on: SREBP pathway
Test: SREBP luciferase reporter gene system (SRE-luciferase assay)
Type: cell-based, human
Settings: Huh-7/SRE-luc cells, sterol-deficient medium, 0.01-10 µM
Outline: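 Huh-7 cells stably carrying LDLR promoter-luciferase plus GFP were treated 16 h in sterol-deficient medium (5% lipoprotein-deficient serum, 2 µM lovastatin, 10 µM mevalonic acid) at 0.01–10 µM. Luciferase/GFP ratio measured as pathway activity; inhibition versus DMSO fitted to a four-parameter model for IC50.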

Compound | IC50 (16 hours) | IC50 (Homo sapiens, Huh-7, 16 h)
C[C@H](CCN(C)C(=O)c1ccccc1F)[C@H]1CC[C@H]2[C@@H]3CC[C@@]4(C)[C@@H](O)[C@@H](O)CC[C@]4(C)[C@H]3CC[C@]12C [Compound 15B, 2-fluoro-N-[(3R)-3-[(1R,3aS,3bS,5aR,6R,7S,9aR,9bS,11aR)-6,7-dihydroxy-5a,9a,11a-trimethylhexadecahydro-1H-cyclopenta[1,2-a]phenanthren-1-yl]butyl]-N-methylbenzamide] | 0.32 µM | –
C[C@H](CCCC(O)c1cccc2nn[nH]c12)[C@H]1CC[C@H]2[C@H]3[C@H](CC[C@]12C)[C@@]1(C)CC[C@H](O)[C@H](O)[C@@H]1CC3(F)F (stereo partly drawn) [Compound 282, (1R,3aS,3bS,5aR,6R,7 S,9aR,9bS,11aR)-4,4-Difluoro-1-[(2R)-6-hydroxy-6-(3H-benzo[d][1,2,3]triazol-4-yl)hexan-2-yl]-9a,11a-dimethylhexadecahydro-1H-cyclopenta[1,2-a]phenanthrene-6,7-diol] | – | 0.389 µM
COc1nc(F)ccc1[C@](C)(O)CCC[C@@H](C)[C@H]1CC[C@H]2[C@H]3[C@H](CC[C@]12C)[C@@]1(C)CC[C@H](O)[C@H](O)[C@@H]1CC3(F)F [Compound 310, (1R,3aS,3bS,5aR,6R,7S,9aR,9bS,11aR)-4,4-difluoro-1-[(2R,6R)-6-(6-fluoro-2-methoxypyridin-3-yl)-6-hydroxyheptan-2-yl]-9a,11a-dimethylhexadecahydro-1H-cyclopenta[1,2-a]phenanthrene-6,7-diol] | – | 0.209 µM
C[C@H](CCC(=O)N(C)c1ccccc1F)[C@H]1CC[C@H]2[C@@H]3CC[C@H]4[C@@H](O)[C@@H](O)CC[C@]4(C)[C@H]3CC[C@]12C [Compound 47, (3S,4R,5R,8S,9S,10R,13R,14S,17R,20R)-N-(2-fluorophenyl)-3,4-dihydroxy-N-methyl-5α-cholan-24-amide] | – | 0.05 µM
COc1cc(F)nc(OC)c1[C@H](O)CCC[C@@H](C)[C@H]1CC[C@H]2[C@H]3[C@H](CC[C@]12C)[C@@]1(C)CC[C@H](O)[C@H](O)[C@@H]1CC3(F)F (single isomer, unassigned) [Compound 264] | – | 0.189 µM
COc1nc(F)ccc1[C@@H](O)CCC[C@@H](C)[C@H]1CC[C@H]2[C@H]3[C@H](CC[C@]12C)[C@@]1(C)CC[C@H](O)C[C@@H]1CC3(F)F [Compound 312, (1R,3aS,3bR,5aR,7S,9aS,9bS,11aR)-4,4-difluoro-1-[(2R,6S)-6-(6-fluoro-2-methoxypyridin-3-yl)-6-hydroxyhexan-2-yl]-9a,11a-dimethylhexadecahydro-1H-cyclopenta[1,2-a]phenanthren-7-ol] | – | 0.276 µM
COc1cccc(C(O)CCC[C@@H](C)[C@H]2CC[C@H]3[C@@H]4CC[C@H]5[C@@H](O)[C@@H](O)CC[C@]5(C)[C@H]4CC[C@]23C)c1 (stereo partly drawn) [Compound 5, 24-[hydroxy(3-methoxyphenyl)methyl]-5α-cholane-3β,4β-diol] | – | 0.13 µM
C[C@H](CCCC(O)c1cccc2cn[nH]c12)[C@H]1CC[C@H]2[C@H]3[C@H](CC[C@]12C)[C@@]1(C)CC[C@H](O)[C@H](O)[C@@H]1CC3(F)F (single isomer, unassigned) [Compound 268, (1R,3aS,3bS,5aR,6R,7S,9aR,9bS,11aR)-4,4-difluoro-1-[(2R,6S)-6-hydroxy-6-(1H-indazol-7-yl)hexan-2-yl]-9a,11a-dimethylhexadecahydro-1H-cyclopenta[1,2-a]phenanthrene-6,7-diol or (1R,3aS,3bS,5aR,6R,7S,9aR,9bS,11aR)-4,4-difluoro-1-[(2R,6R)-6-hydroxy-6-(1H-indazol-7-yl)hexan-2-yl]-9a,11a-dimethylhexadecahydro-1H-cyclopenta[1,2-a]phenanthrene-6,7-diol] | 0.141 µM | –
C[C@H](CCC[C@@H](O)c1cccc2cnn(C)c12)[C@H]1CC[C@H]2C3=C(F)C[C@H]4[C@@H](O)[C@@H](O)CC[C@]4(C)[C@H]3CC[C@]12C (single isomer, unassigned) [Compound 246] | – | 0.139 µM
COc1nc(F)cc(F)c1[C@H](O)CCC[C@@H](C)[C@H]1CC[C@H]2[C@H]3[C@H](CC[C@]12C)[C@@]1(C)CC[C@H](O)[C@H](O)[C@@H]1CC3(F)F (single isomer, unassigned) [Compound 256] | – | 0.099 µM
COc1ccccc1C(CCC[C@@H](C)[C@H]1CC[C@H]2[C@@H]3CC[C@H]4[C@@H](O)[C@@H](O)CC[C@]4(C)[C@H]3CC[C@]12C)OC (stereo partly drawn) [Compound 22, 24-[methoxy(2-methoxyphenyl)methyl]-5α-cholane-3β,4β-diol] | – | 2.01 µM
COc1cc(F)ccc1[C@H](O)CCC[C@@H](C)[C@H]1CC[C@H]2C3=C(F)C[C@H]4[C@@H](O)[C@@H](O)CC[C@]4(C)[C@H]3CC[C@]12C [Compound 132, (1R,3aR,5aR,6R,7S,9aR,9bR,11aR)-4-fluoro-1-[(2R,6R)-6-(4-fluoro-2-methoxyphenyl)-6-hydroxyhexan-2-yl]-9a,11a-dimethyl-2,3,3a,5,5a,6,7,8,9,9a,9b,10,11,11a-tetradecahydro-1H-cyclopenta[1,2-a]phenanthrene-6,7-diol] | – | 0.096 µM
C[C@H](CCCC(O)c1cccc2cnn(C)c12)[C@H]1CC[C@H]2[C@H]3[C@H](CC[C@]12C)[C@@]1(C)CC[C@H](O)[C@H](O)[C@@H]1CC3(F)F (single isomer, unassigned) [Compound 243, (1R,3aS,3bS,5aR,6R,7S,9aR,9bS,11aR)-4,4-difluoro-1-[(2R,6S)-6-hydroxy-6-(1-methylindazol-7-yl)hexan-2-yl]-9a,11a-dimethylhexadecahydro-1H-cyclopenta[1,2-a]phenanthrene-6,7-diol or (1R,3aS,3bS,5aR,6R,7S,9aR,9bS,11aR)-4,4-difluoro-1-[(2R,6R)-6-hydroxy-6-(1-methylindazol-7-yl)hexan-2-yl]-9a,11a-dimethylhexadecahydro-1H-cyclopenta[1,2-a]phenanthrene-6,7-diol] | 0.134 µM | –
C[C@H](CCCC(O)c1ccncc1)[C@H]1CC[C@H]2[C@H]3[C@H](CC[C@]12C)[C@@]1(C)CC[C@H](O)[C@H](O)[C@@H]1CC3(F)F (stereo partly drawn) [Compound 76, (1R,3aS,3bS,5aR,6R,7S,9aR,9bS,11aR)-4,4-difluoro-1-[(2R)-6-hydroxy-6-(pyridin-4-yl)hexan-2-yl]-9a,11a-dimethylhexadecahydro-1H-cyclopenta[1,2-a]phenanthrene-6,7-diol] | – | 0.9 µM
COc1cc(Cl)ccc1[C@@H](O)CCC[C@@H](C)[C@H]1CC[C@H]2C3=C(F)C[C@H]4[C@@H](O)[C@@H](O)CC[C@]4(C)[C@H]3CC[C@]12C [Compound 111, (1R,3aR,5aR,6R,7S,9aR,9bR,11aR)-1-[(2R,6S)-6-(4-chloro-2-methoxyphenyl)-6-hydroxyhexan-2-yl]-4-fluoro-9a,11a-dimethyl-2,3,3a,5,5a,6,7,8,9,9a,9b,10,11,11a-tetradecahydro-1H-cyclopenta[1,2-a]phenanthrene-6,7-diol] | – | 1.48 µM
COc1nc(F)ccc1C(O)CC[C@@H](C)[C@H]1CC[C@H]2[C@H]3[C@H](CC[C@]12C)[C@@]1(C)CC[C@H](O)[C@H](O)[C@@H]1CC3(F)F (stereo partly drawn) [Compound 341, (1R,3aS,3bS,5aR,6R,7S,9aR,9bS,11aR)-4,4-difluoro-1-[(2R)-5-(6-fluoro-2-methoxypyridin-3-yl)-5-hydroxypentan-2-yl]-9a,11a-dimethylhexadecahydro-1H-cyclopenta[1,2-a]phenanthrene-6,7-diol] | – | 0.206 µM
COc1ncc(F)cc1[C@@H](O)CCC[C@@H](C)[C@H]1CC[C@H]2[C@H]3[C@H](CC[C@]12C)[C@@]1(C)CC[C@H](O)[C@H](O)[C@@H]1CC3(F)F (single isomer, unassigned) [Compound 228] | – | 1.42 µM
COc1cc(F)c([C@@H](O)CCC[C@@H](C)[C@H]2CC[C@H]3[C@H]4[C@H](CC[C@]23C)[C@@]2(C)CC[C@H](O)[C@H](O)[C@@H]2CC4(F)F)c(F)n1 (single isomer, unassigned) [Compound 238] | – | 0.289 µM
C[C@H](CCCC(O)c1nc2c(s1)CCOC2)[C@H]1CC[C@H]2[C@H]3[C@H](CC[C@]12C)[C@@]1(C)CC[C@H](O)[C@H](O)[C@@H]1CC3(F)F (stereo partly drawn) [Compound 257, (1R,3aS,3bS,5aR,6R,7 S,9aR,9bS,11aR)-1-[(2R)-6-(6,7-Dihydro-4H-pyrano[3,4-d][1,3]thiazol-2-yl)-6-hydroxyhexan-2-yl]-4,4-difluoro-9a,11a-dimethylhexadecahyd ro-1H-cyclopenta[1,2-a]phenanthrene-6,7-diol] | – | 0.154 µM
COc1nc(F)ccc1[C@@H](O)CC[C@@H](C)[C@H]1CC[C@H]2C3=C(F)C[C@H]4[C@@H](O)[C@@H](O)CC[C@]4(C)[C@H]3CC[C@]12C [Compound 339, (1R,3aR,5aR,6R,7S,9aR,9bR,11aR)-4-fluoro-1-[(2R,5S)-5-(6-fluoro-2-methoxypyridin-3-yl)-5-hydroxypentan-2-yl]-9a,11a-dimethyl-2,3,3a,5,5a,6,7,8,9,9a,9b,10,11,11a-tetradecahydro-1H-cyclopenta[1,2-a]phenanthrene-6,7-diol] | – | 0.143 µM
C[C@H](CCCC(O)c1cnc2c(c1)OC(F)(F)O2)[C@H]1CC[C@H]2[C@H]3[C@H](CC[C@]12C)[C@@]1(C)CC[C@H](O)[C@H](O)[C@@H]1CC3(F)F (stereo partly drawn) [Compound 284, (1R,3aS,3bS,5aR,6R,7 S,9aR,9bS,11aR)-1-[(2R)-6-(2,2-Difluoro[1,3]dioxolo[4,5-b]pyridin-6-yl)-6-hydroxyhexan-2-yl]-4,4-difluoro-9a,11a-dimethylhexadecahydro-1H-cyclopenta[1,2-a]phenanthrene-6,7-diol] | – | 0.309 µM
